Source: patent US20110158980A1, “METHODS TO TREAT AND SCREEN FOR AGENTS TO TREAT OBESITY” (TRUSTEES OF TUFTS COLLEGE, priority 2008, published 2011)

Test system: 3T3-L1 adipocytes
Test: Metabolic flux analysis (stoichiometric model) of adipocyte intermediary metabolism
Format: cell-based
Method: 3T3-L1 preadipocytes were plated onto 24-well plates and expanded in preadipocyte growth medium consisting of DMEM supplemented with calf serum (10% v/v), penicillin and streptomycin. Medium was replenished every other day. Two days post-confluence, the cells were induced to differentiate using an adipogenic cocktail (1 μg/ml insulin, 0.5 mM isobutylmethylxanthine, and 1 μM dexamethasone) added to a basal medium (DMEM with 10% fetal bovine serum and penicillin/streptomycin). After 48 hrs, the first medium was replaced with a second induction medium consisting of the basal adipocyte medium supplemented with only insulin. […] This basal medium was replenished every other day during the remainder of the culture experiments.
A stoichiometric model of adipocyte central carbon metabolism was constructed as described previously (Si Y, Yoon J, Lee K. American journal of physiology 2007; 292:E1637-46). The model consisted of the major pathways of central carbon metabolism (Table 1). Intracellular fluxes were estimated by solving a constrained non-linear optimization problem with stoichiometric and thermodynamic constraints (Nolan R P, Fenley A P, Lee K. Metab Eng 2006; 8:30-45).

O=C(O)Cc1ccccc1 [phenylacetate]
Increase of lipolysis (5 mM PA): 1.2 fold | Decrease of citrate transport out of the mitochondria (5 mM phenylacetate): 40% | Decrease of pyruvate carboxylase flux (5 mM phenylacetate): 23% | Increase of lipolysis (10 mM PA): 1.4 fold | Calculated CO2 output lower (10 mM phenylacetate): 23% | Decrease of PDC flux (10 mM phenylacetate): 27% | Decrease of citrate transport out of the mitochondria (10 mM phenylacetate): 46% | Decrease of pyruvate carboxylase flux (10 mM phenylacetate): 33% | Flux RXN 1 Glycolysis: Glucose + ATP = Glucose 6-P + ADP (PA 5 mM, day 12 post-induction): 367.0 ± 17.6 mmol/g-DNA/2 days | Flux RXN 2 Glycolysis: Glucose 6-P = Fructose 6-P (PA 5 mM, day 12 post-induction): 359.9 ± 23.3 mmol/g-DNA/2 days | Flux RXN 3 Glycolysis: Fructose 6-P + ATP = Glyceraldehyde 3-P + Glycerone-P + ADP (PA 5 mM, day 12 post-induction): 364.7 ± 19.3 mmol/g-DNA/2 days | Flux RXN 4 Glycolysis: Glycerone-P = Glyceraldehyde 3-P (PA 5 mM, day 12 post-induction): 342.7 ± 18.4 mmol/g-DNA/2 days | Flux RXN 5 Glycolysis: Glyceraldehyde 3-P + NAD+ + ADP + Pi = P-Enolpyruvate + ATP + H2O (PA 5 mM, day 12 post-induction): 709.8 ± 35.8 mmol/g-DNA/2 days | Flux RXN 6 Glycolysis: P-Enolpyruvate + ADP + H+ = Pyruvate + ATP (PA 5 mM, day 12 post-induction): 784.6 ± 35.5 mmol/g-DNA/2 days | Flux RXN 7 Glycolysis: Pyruvate + NADH + H+ = Lactate + NAD+ (PA 5 mM, day 12 post-induction): 410.4 ± 19.1 mmol/g-DNA/2 days | Flux RXN 8 Pentose phosphate pathway: Glucose 6-P + 2 NADP+ + H2O = Ribulose 5-P + CO2 + 2 NADPH + 2 H+ (PA 5 mM, day 12 post-induction): 7.1 ± 7.8 mmol/g-DNA/2 days | Flux RXN 9 Pentose phosphate pathway: 3 Ribulose 5-P = 2 Fructose 6-P + Glyceraldehyde 3-P (PA 5 mM, day 12 post-induction): 2.4 ± 2.6 mmol/g-DNA/2 days | Flux RXN 10 TCA cycle (mitochondria) (PDC) (PA 5 mM, day 12 post-induction): 312.7 ± 48.2 mmol/g-DNA/2 days | Flux RXN 11 TCA cycle (mitochondria) (PC) (PA 5 mM, day 12 post-induction): 141.4 ± 13.2 mmol/g-DNA/2 days | Flux RXN 12 TCA cycle (mitochondria) (PA 5 mM, day 12 post-induction): 200.9 ± 54.1 mmol/g-DNA/2 days | Flux RXN 13 TCA cycle (mitochondria) (PA 5 mM, day 12 post-induction): 237.8 ± 52.0 mmol/g-DNA/2 days | Flux RXN 14 TCA cycle (mitochondria) (PA 5 mM, day 12 post-induction): 251.0 ± 52.6 mmol/g-DNA/2 days | Flux RXN 15 TCA cycle (mitochondria) (PA 5 mM, day 12 post-induction): 251.2 ± 52.7 mmol/g-DNA/2 days | Flux RXN 16 TCA cycle (mitochondria) (PA 5 mM, day 12 post-induction): 171.3 ± 45.2 mmol/g-DNA/2 days | Flux RXN 17 TCA cycle: Citrate + CoA + ATP = Acetyl-CoA + Oxaloacetate + ADP + Pi (PA 5 mM, day 12 post-induction): 74.9 ± 9.0 mmol/g-DNA/2 days | Flux RXN 18 TCA cycle: Oxaloacetate + NADH + H+ = Malate + NAD+ (PA 5 mM, day 12 post-induction): 0.0 ± 0.0 mmol/g-DNA/2 days | Flux RXN 19 TCA cycle: Malate + NADP+ = Pyruvate + CO2 + NADPH (PA 5 mM, day 12 post-induction): 79.9 ± 9.7 mmol/g-DNA/2 days | Flux RXN 20 TCA cycle: Citrate + NADP+ = 2-Oxoglutarate + CO2 + NADPH + H+ (PA 5 mM, day 12 post-induction): 36.9 ± 7.3 mmol/g-DNA/2 days | Flux RXN 21 TCA cycle: Oxaloacetate + ATP = P-Enolpyruvate + CO2 + ADP (PA 5 mM, day 12 post-induction): 74.8 ± 9.0 mmol/g-DNA/2 days | Flux RXN 22 Oxidative phosphorylation (NADH + 0.5 O2) (PA 5 mM, day 12 post-induction): 527.6 ± 214.3 mmol/g-DNA/2 days | Flux RXN 23 Oxidative phosphorylation (FADH2 + 0.5 O2) (PA 5 mM, day 12 post-induction): 272.8 ± 53.3 mmol/g-DNA/2 days | Flux RXN 24 Palmitate biosynthesis (PA 5 mM, day 12 post-induction): 9.4 ± 1.1 mmol/g-DNA/2 days | Flux RXN 25 Tripalmitoylglycerol biosynthesis: Glycerone-P + 3 Palmitate to Tripalmitoylglycerol (PA 5 mM, day 12 post-induction): 22.0 ± 1.3 mmol/g-DNA/2 days | Flux RXN 26 Tripalmitoylglycerol + 3 H2O = Glycerol + 3 Palmitate (PA 5 mM, day 12 post-induction): 19.2 ± 1.4 mmol/g-DNA/2 days | Flux RXN 27 Tripalmitoylglycerol accumulation (PA 5 mM, day 12 post-induction): 2.8 ± 0.4 mmol/g-DNA/2 days | Flux RXN 28 Metabolism of ketone bodies (PA 5 mM, day 12 post-induction): 8.4 ± 0.3 mmol/g-DNA/2 days | Flux RXN 29 Metabolism of ketone bodies (PA 5 mM, day 12 post-induction): 0.0 ± 0.0 mmol/g-DNA/2 days | Flux RXN 30 Metabolism of ketone bodies (to 3-Hydroxybutyrate) (PA 5 mM, day 12 post-induction): 17.0 ± 0.6 mmol/g-DNA/2 days | Flux RXN 31 Amino acid metabolism: Pyruvate + NH4+ + NADPH = Alanine (PA 5 mM, day 12 post-induction): 0.0 ± 0.0 mmol/g-DNA/2 days | Flux RXN 32 Amino acid metabolism: Aspartate + NH4+ = Asparagine (PA 5 mM, day 12 post-induction): 2.3 ± 0.1 mmol/g-DNA/2 days | Flux RXN 33 Amino acid metabolism: Aspartate = Oxaloacetate + NH4+ + NADH (PA 5 mM, day 12 post-induction): 0.0 ± 0.0 mmol/g-DNA/2 days | Flux RXN 34 Amino acid metabolism: Cysteine = Pyruvate + NH4+ + NADH (PA 5 mM, day 12 post-induction): 0.0 ± 0.0 mmol/g-DNA/2 days | Flux RXN 35 Amino acid metabolism: Glutamate = 2-Oxoglutarate + NH4+ + NADH (PA 5 mM, day 12 post-induction): 0.0 ± 0.0 mmol/g-DNA/2 days | Flux RXN 36 Amino acid metabolism: Glutamate + NH4+ + ATP = Glutamine (PA 5 mM, day 12 post-induction): 5.3 ± 0.4 mmol/g-DNA/2 days | Flux RXN 37 Amino acid metabolism: Serine + THF = Glycine (PA 5 mM, day 12 post-induction): 5.8 ± 0.2 mmol/g-DNA/2 days | Flux RXN 38 Amino acid metabolism: Histidine + THF = Glutamate + NH4+ (PA 5 mM, day 12 post-induction): 2.7 ± 0.2 mmol/g-DNA/2 days | Flux RXN 39 Amino acid metabolism: Isoleucine + 2 CoA (PA 5 mM, day 12 post-induction): 8.1 ± 0.3 mmol/g-DNA/2 days | Flux RXN 40 Amino acid metabolism: Leucine + CoA + CO2 + ATP (PA 5 mM, day 12 post-induction): 8.6 ± 0.3 mmol/g-DNA/2 days | Flux RXN 41 Amino acid metabolism: Lysine = 2-Oxoadipate + 2 NH4+ + 3 NADH (PA 5 mM, day 12 post-induction): 0.0 ± 0.0 mmol/g-DNA/2 days | Flux RXN 42 Amino acid metabolism: 2-Oxoadipate + CoA (PA 5 mM, day 12 post-induction): 0.0 ± 0.0 mmol/g-DNA/2 days | Flux RXN 43 Amino acid metabolism: Methionine + Serine + ATP + CoA + THF (PA 5 mM, day 12 post-induction): 0.0 ± 0.0 mmol/g-DNA/2 days | Flux RXN 44 Amino acid metabolism: Phenylalanine + O2 + NADH = Tyrosine (PA 5 mM, day 12 post-induction): 0.0 ± 0.0 mmol/g-DNA/2 days | Flux RXN 45 Amino acid metabolism: Glutamate + ATP + 2 NADPH = Proline (PA 5 mM, day 12 post-induction): 0.0 ± 0.0 mmol/g-DNA/2 days | Flux RXN 46 Amino acid metabolism: Serine = Pyruvate + NH4+ (PA 5 mM, day 12 post-induction): 0.0 ± 0.0 mmol/g-DNA/2 days | Flux RXN 47 Amino acid metabolism: Threonine + CoA to Glycine (PA 5 mM, day 12 post-induction): 0.1 ± 0.1 mmol/g-DNA/2 days | Flux RXN 48 Amino acid metabolism: Tryptophan + 3 O2 + NADPH = 2-Oxoadipate + Alanine + CO2 + NH4+ (PA 5 mM, day 12 post-induction): 0.0 ± 0.0 mmol/g-DNA/2 days | Flux RXN 49 Amino acid metabolism: Tyrosine + 2 O2 (PA 5 mM, day 12 post-induction): 0.2 ± 0.1 mmol/g-DNA/2 days | Flux RXN 50 Amino acid metabolism: Valine + CoA (PA 5 mM, day 12 post-induction): 5.1 ± 0.4 mmol/g-DNA/2 days | Flux RXN 51 Plasma exchange: Palmitate (PA 5 mM, day 12 post-induction): 1.0 ± 0.1 mmol/g-DNA/2 days | Flux RXN 52 Plasma exchange: Acetoacetate (PA 5 mM, day 12 post-induction): 0.2 ± 0.2 mmol/g-DNA/2 days | Flux RXN 53 Plasma exchange: Alanine (PA 5 mM, day 12 post-induction): 0.0 ± 0.0 mmol/g-DNA/2 days | Flux RXN 54 Plasma exchange: Aspartate (PA 5 mM, day 12 post-induction): 2.3 ± 0.1 mmol/g-DNA/2 days | Flux RXN 55 Plasma exchange: Cysteine (PA 5 mM, day 12 post-induction): 0.0 ± 0.0 mmol/g-DNA/2 days | Flux RXN 56 Plasma exchange: Glutamate (PA 5 mM, day 12 post-induction): 2.6 ± 0.2 mmol/g-DNA/2 days | Flux RXN 57 Plasma exchange: Glycine (PA 5 mM, day 12 post-induction): 5.9 ± 0.2 mmol/g-DNA/2 days | Flux RXN 58 Plasma exchange: Serine (PA 5 mM, day 12 post-induction): 5.8 ± 0.2 mmol/g-DNA/2 days | Flux RXN 59 Plasma exchange: Tyrosine (PA 5 mM, day 12 post-induction): 0.1 ± 0.1 mmol/g-DNA/2 days | Flux RXN 60 Plasma exchange: O2 (calculated oxygen uptake rate) (PA 5 mM, day 12 post-induction): 400.5 ± 134.0 mmol/g-DNA/2 days | Flux RXN 61 Plasma exchange: CO2 (PA 5 mM, day 12 post-induction): 805.5 ± 145.9 mmol/g-DNA/2 days | Flux RXN 62 Plasma exchange: NH4+ (PA 5 mM, day 12 post-induction): 17.0 ± 1.0 mmol/g-DNA/2 days | Flux RXN 63 Mitochondrial exchange: Pyruvate (PA 5 mM, day 12 post-induction): 454.0 ± 54.4 mmol/g-DNA/2 days | Flux RXN 64 Mitochondrial exchange: Malate in, Citrate out (PA 5 mM, day 12 post-induction): 111.7 ± 15.8 mmol/g-DNA/2 days
